Assays:
[1] = target: T1, isolated mGluR2 TMD (SNAP-mGluR2-TMD) (Rattus norvegicus, UniProt P31421); assay: GIRK activation assay, whole cell patch clamp, isolated mGluR2 TMD; format: cell-based; conditions: normalized to saturating LY48
T1 construct: mGluR2-TMD (rat) starts at Q558; expressed in transfected cells; host or cells: HEK 293T
Method: (§1) Cells were cultured in DMEM with 5% FBS on poly-L-lysine-coated glass coverslips. DNA plasmids were transfected into cells using Lipofectamine 3000 (Thermo Fisher). […] For single-molecule pulldown (SiMPull) experiments, cells were transfected with 0.7 μg DNA of HA and SNAP-tagged receptor constructs, unless otherwise noted. For FRET experiments, cells were transfected with either SNAP-tagged constructs at 0.5–0.7 μg of DNA/well or SNAP and CLIP-tagged constructs at a ratio of 1:2 with 0.3 μg of SNAP DNA/well.
(§2) Whole-cell patch clamp recordings from single isolated cells were performed 24–36 hr after transfection in a high-potassium extracellular solution containing (in mM): 120 KCl, 29 NaCl, 1 MgCl2, 2 CaCl2 and 10 HEPES, pH 7.4. Cells were voltage clamped to −60 mV using an Axopatch 200B amplifier (Axon Instruments) and membrane currents were recorded. Glass pipettes of resistance between 3 and 8 MΩ were filled with intracellular solution containing (in mM): 140 KCl, 10 HEPES, 3 Na2ATP, 0.2 Na2GTP, 5 EGTA and 3 MgCl2, pH 7.4. Data were acquired with a 2 kHz acquisition rate and filtered with the amplifier 4-pole Bessel filter at 1 kHz. Drugs were prepared in extracellular solution and applied using a gravity-driven perfusion system. Data were analyzed with Clampfit (Molecular Devices) and Prism (GraphPad). Data for all conditions came from at least two separate transfections.

mGluR2-N735D = target: T2, mGluR2-N735D (Rattus norvegicus, UniProt P31421, N735D); assay: GIRK activation assay, whole cell patch clamp, mGluR2-N735D; format: cell-based; conditions: relative to wild-type / saturating glutamate
T2 construct: expressed in transfected cells; host or cells: HEK 293T
T2 sequence (P31421 19-872 N735D): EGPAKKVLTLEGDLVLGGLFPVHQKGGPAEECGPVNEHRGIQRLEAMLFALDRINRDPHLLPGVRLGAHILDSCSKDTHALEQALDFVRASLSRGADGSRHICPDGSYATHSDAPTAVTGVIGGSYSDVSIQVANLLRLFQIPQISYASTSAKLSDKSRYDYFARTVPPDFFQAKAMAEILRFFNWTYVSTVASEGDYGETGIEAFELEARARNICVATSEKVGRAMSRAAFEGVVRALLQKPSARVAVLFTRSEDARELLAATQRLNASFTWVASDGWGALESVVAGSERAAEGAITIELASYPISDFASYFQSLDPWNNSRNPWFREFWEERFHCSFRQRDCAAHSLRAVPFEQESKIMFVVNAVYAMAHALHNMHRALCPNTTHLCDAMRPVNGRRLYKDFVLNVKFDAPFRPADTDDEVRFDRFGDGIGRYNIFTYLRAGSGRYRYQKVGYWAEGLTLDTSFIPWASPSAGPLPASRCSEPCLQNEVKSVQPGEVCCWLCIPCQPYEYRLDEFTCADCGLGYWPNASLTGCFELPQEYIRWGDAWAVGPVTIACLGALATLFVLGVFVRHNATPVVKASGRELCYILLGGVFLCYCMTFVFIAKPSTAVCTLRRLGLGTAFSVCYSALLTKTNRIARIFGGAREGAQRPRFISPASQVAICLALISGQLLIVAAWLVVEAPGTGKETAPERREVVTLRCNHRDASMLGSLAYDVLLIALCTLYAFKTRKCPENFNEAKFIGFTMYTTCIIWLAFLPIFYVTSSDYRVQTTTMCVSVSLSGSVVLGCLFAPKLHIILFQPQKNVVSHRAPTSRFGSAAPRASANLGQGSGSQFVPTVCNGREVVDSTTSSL
Method: as §2

full-length mGluR2 = target: T3, full-length mGluR2 (Rattus norvegicus, UniProt P31421); assay: Calcium imaging assay, HEK cells with full-length mGluR2, GCaMP6f and Gαiq chimera; format: cell-based
T3 construct: HEK 293T cells expressing full-length mGluR2; expressed in transfected cells; host or cells: HEK 293T
T3 sequence (P31421 19-872): as the sequence (P31421 19-872 N735D) above, with D717N counted along it
Method: as §1
Experiments were conducted with continuous gravity-driven perfusion on an inverted microscope (Olympus IX73) and imaged with a 20x objective. […] Regions of interest were selected in Olympus cellSens software and represent single cells or small cell clusters (2–3 cells). Data analysis was performed in Microsoft Excel, where intensities were normalized to the baseline prior to drug application. Dose–response curves were fit using Prism (Graphpad) and data comes from at least two independent experiments for each LY48 concentration.

SNAP-mGluR2-TMD-N735D [2] = target: T4, SNAP-mGluR2-TMD-N735D (Rattus norvegicus, UniProt P31421, N735D); assay: Inter-TMD FRET assay, N735D mutant; format: cell-based; conditions: SNAP-mGluR2-TMD-N735D; normalized to saturating LY48; read-out: inter-TMD FRET increase EC50, N735D
T4 construct: Following SNAP tag, mGluR2 truncatd to position Q558; N at position 735 replaced with D; expressed in transfected cells; host or cells: HEK 293T
T4 sequence (P31421 558-872 N735D): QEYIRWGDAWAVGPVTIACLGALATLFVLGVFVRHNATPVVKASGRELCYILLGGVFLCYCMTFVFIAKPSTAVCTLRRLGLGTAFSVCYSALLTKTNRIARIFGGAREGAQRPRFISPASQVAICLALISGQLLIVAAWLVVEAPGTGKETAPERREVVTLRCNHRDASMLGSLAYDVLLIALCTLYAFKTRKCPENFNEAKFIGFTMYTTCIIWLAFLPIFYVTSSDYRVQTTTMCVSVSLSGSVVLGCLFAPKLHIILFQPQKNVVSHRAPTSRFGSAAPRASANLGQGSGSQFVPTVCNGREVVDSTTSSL
Method: (§3) Fluorophores were diluted in EX solution, which was also used to wash coverslips following labeling and prior to mounting on the microscope. After labeling, cells were mounted on an inverted microscope (Olympus IX73) and imaged with a 60x objective. […] Clusters of cells were analyzed together using ImageJ and FRET was calculated as FRET=(IAcceptor)/(IDonor +IAcceptor) where I is fluorescence intensity. No corrections were made for bleed-through between channels or the contribution of donor-donor or acceptor-acceptor dimers as analysis was limited to relative FRET changes between drug treatments rather than absolute FRET values. […] FRET changes calculated for dose–response curves were normalized to the response to saturating […] applied within the same recording and dose–response curves were obtained from multiple cell clusters and averaged from at least three separate experiments. Dose–response curves were fit using Prism (Graphpad). All drugs were purchased from Tocris, prepared in EX solution, and delivered with a gravity-driven perfusion system. For kinetics measurements a pressurized perfusion system (Automate Scientific) was used to produce a flow rate of 0.5 mL/s. Kinetic analysis was performed in Microsoft Excel. The time between 10% and 90% FRET increase or decrease was determined manually. […]

SNAP-mGluR2-TMD-N735D [3] = assay: Inter-TMD FRET assay, N735D mutant; format: cell-based, Rattus norvegicus; conditions: N735D compared to wild-type receptor
Method: as §3

SNAP-mGluR2 = target: T5, SNAP-mGluR2 (Rattus norvegicus, UniProt P31421); assay: Single-molecule pulldown (SiMPull) photobleaching step counting, full-length SNAP-mGluR2; conditions: 1 mM glutamate and 10 µM LY48
T5 construct: HEK 293T cells expressing full-length mGluR2; expressed in transfected cells; host or cells: HEK 293T
T5 sequence (P31421 19-872): as the sequence (P31421 19-872 N735D) above, with D717N counted along it
Method: To restrict our analysis to surface-targeted receptors, we expressed N-terminally SNAP-tagged receptor variants and labeled them with membrane-impermeable fluorophores.
To test this, we incubated SNAP-mGluR2-TMD expressing cells and lysates with PAMs or NAMs during the SiMPull experiment.
Briefly, to prevent non-specific sticking of proteins, flow chambers were prepared with mPEG-passivated glass slides and coverslips doped with ~1% biotinylated mPEG, as previously described. Prior to each experiment, chambers were incubated with 0.2 mg/mL NeutrAvidin (ThermoFisher) for 2 min followed by 10 nM of a biotinylated anti-HA antibody (abcam ab26228) for 20–30 min. After each conjugation step, the chambers were washed with T50 buffer (50 mM NaCl, 10 mM Tris, pH 7.5).
After labeling, cells were dissociated from coverslips by incubating with Ca^2+-free PBS for 20 min followed by gentle pipetting. […] Following 1 hr of lysis at 4°C, cells were centrifuged at 16,000 g for 20 min before the supernatant was collected and maintained on ice. The cell lysate was diluted in a 0.1% detergent dilution buffer to obtain sparse immobilization of labeled protein on the passivated slide. […]
Single molecules were imaged with a 100x objective on an inverted microscope (Olympus IX73) in total internal reflection fluorescence (TIRF) mode. […]

T1 sequence (P31421 558-872 limits assumed): as the sequence (P31421 558-872 N735D) above, with D178N counted along it

Q: What does the source list for COc1ccccc1Oc1ccc(N(Cc2cccnc2)S(=O)(=O)CC(F)(F)F)cc1 [LY48]?
A: EC50 [1]: 140 ± 10 nM; GIRK activation of mGluR2-N735D (mGluR2-N735D): drastically reduced activation; EC50 (full-length mGluR2): 1200 ± 200 nM; EC50 (SNAP-mGluR2-TMD-N735D [2]): 20500 ± 1400 nM; rightward shift of inter-TMD FRET dose-response curve, N735D versus wild-type (SNAP-mGluR2-TMD-N735D [3]): ~ 20 fold; two-step bleaching events of SNAP-mGluR2 with glutamate plus LY48 (SNAP-mGluR2): ~ 60%
